Assay results as given in ChEMBL document CHEMBL1201862, “PubChem BioAssay data set” (2004).
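Protocol summary: plate cells (96-well), add compound at 5 concentrations, incubate 48 h, interpolate endpoints linearly. Here, GI50 denotes the concentration required for 50% inhibition of growth.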 Calls of active or inactive are those of the source. No stated cut-off is given here; in the data, active = GI50 up to about 1.1 µM and inactive = higher.

Experiments:
Experiment in all cases: DTP human tumour cell line panel, 48 h
SNB-78 = system: SNB-78
DU-145 = system: DU-145
KM12 = system: KM12
NCI-H23 = system: NCI-H23
UACC-62 = system: UACC-62
786-0 = system: 786-0
HOP-92 = system: HOP-92
A549 = system: A549
PC-3 = system: PC-3
COLO 205 = system: COLO 205
SF-539 = system: SF-539
LOX IMVI = system: LOX IMVI
OVCAR-8 = system: OVCAR-8
SK-MEL-5 = system: SK-MEL-5
K562 = system: K562
M14 = system: M14
EKVX = system: EKVX
U-251 = system: U-251
UACC-257 = system: UACC-257
NCI-H460 = system: NCI-H460

Cc1c(/N=C\c2ccc(N(CCC#N)CCC#N)cc2)c(=O)n(-c2ccccc2)n1C was tested, and the GI50 (SNB-78) was 51600 nM (inactive), the GI50 (DU-145) was > 100000 nM (inactive) and the GI50 (KM12) was > 100000 nM (inactive). For the same compound, the GI50 (NCI-H23) was > 100000 nM (inactive), the GI50 (UACC-62) was > 100000 nM (inactive) and the GI50 (786-0) was 24400 nM (inactive). The GI50 (HOP-92) was 45700 nM (inactive), the GI50 (A549) was 82600 nM (inactive) and the GI50 (PC-3) was > 100000 nM (inactive). The GI50 (COLO 205) was > 100000 nM (inactive), the GI50 (SF-539) was 31600 nM (inactive) and the GI50 (LOX IMVI) was > 100000 nM (inactive). The GI50 (OVCAR-8) was > 100000 nM (inactive), the GI50 (SK-MEL-5) was > 100000 nM (inactive) and the GI50 (K562) was > 100000 nM (inactive). For the same compound, the GI50 (M14) was 92700 nM (inactive), the GI50 (EKVX) was > 93500 nM (inactive) and the GI50 (U-251) was 39200 nM (inactive). The GI50 (UACC-257) was > 100000 nM (inactive) and the GI50 (NCI-H460) was > 100000 nM (inactive).
In the case of COc1cc2c(cc1OC)C(OC)N(C)c1c-2ccc2cc3c(cc12)OCO3 (stereo not given), the GI50 (SNB-78) is reported as 2670 nM (inactive), the GI50 (DU-145) is reported as 2260 nM (inactive) and the GI50 (KM12) is reported as 839 nM (active). The GI50 (NCI-H23) was 1670 nM (inactive), the GI50 (UACC-62) was 800 nM (active) and the GI50 (786-0) was 1860 nM (inactive). For the same compound, the GI50 (HOP-92) was 2190 nM (inactive), the GI50 (A549) was 201 nM (active) and the GI50 (PC-3) was 1330 nM (inactive). For the same compound, the GI50 (COLO 205) was 733 nM (active), the GI50 (SF-539) was 1750 nM (inactive) and the GI50 (LOX IMVI) was 5360 nM (inactive). The GI50 (OVCAR-8) was 1720 nM (inactive), the GI50 (SK-MEL-5) was 1800 nM (inactive) and the GI50 (K562) was 1750 nM (inactive). The GI50 (M14) was 3300 nM (inactive), the GI50 (EKVX) was 1820 nM (inactive) and the GI50 (U-251) was 356 nM (active). For the same compound, the GI50 (UACC-257) was 12100 nM (inactive) and the GI50 (NCI-H460) was 486 nM (active).
With C=C(C)[C@H]1Cc2c(ccc3c2O[C@@H]2COc4cc(OC)c(OC)cc4[C@@H]2C3=O)O1 [ROTENONE] the GI50 (SNB-78) was 456 nM (active), the GI50 (DU-145) was 133 nM (active) and the GI50 (KM12) was 89.7 nM (active). The GI50 (NCI-H23) was 25.8 nM (active), the GI50 (UACC-62) was 59.7 nM (active) and the GI50 (786-0) was 236 nM (active). The GI50 (HOP-92) was 116 nM (active), the GI50 (A549) was 78.5 nM (active) and the GI50 (PC-3) was 155 nM (active). The GI50 (COLO 205) was 118 nM (active), the GI50 (SF-539) was 128 nM (active) and the GI50 (LOX IMVI) was 62.4 nM (active). For the same compound, the GI50 (OVCAR-8) was 257 nM (active), the GI50 (SK-MEL-5) was 20.3 nM (active) and the GI50 (K562) was 92.9 nM (active). For the same compound, the GI50 (M14) was 210 nM (active), the GI50 (EKVX) was 736 nM (active) and the GI50 (U-251) was 224 nM (active). The GI50 (UACC-257) was 51.6 nM (active) and the GI50 (NCI-H460) was 89.1 nM (active).
